One assay concerns the target human TLR9 (Homo sapiens (Human), UniProt Q9NR96). The assay can be described thus: TLR9 inhibition reporter assay (HEK-Blue cells, SEAP reporter, ODN2006 stimulation).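 Note: compounds tested over 0.05 nM to 50 µM, 22 h incubation, inhibition taken as SEAP signal drop from agonist plus DMSO wells toward a known inhibitor control.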
The target in a further assay is human TLR7 (Homo sapiens (Human), UniProt Q9NYK1). The assay can be described thus: TLR7 inhibition reporter assay (HEK-Blue cells, SEAP reporter, gardiquimod stimulation). The class given is cell-based.
human TLR7, sequence (Q9NYK1 27-1049): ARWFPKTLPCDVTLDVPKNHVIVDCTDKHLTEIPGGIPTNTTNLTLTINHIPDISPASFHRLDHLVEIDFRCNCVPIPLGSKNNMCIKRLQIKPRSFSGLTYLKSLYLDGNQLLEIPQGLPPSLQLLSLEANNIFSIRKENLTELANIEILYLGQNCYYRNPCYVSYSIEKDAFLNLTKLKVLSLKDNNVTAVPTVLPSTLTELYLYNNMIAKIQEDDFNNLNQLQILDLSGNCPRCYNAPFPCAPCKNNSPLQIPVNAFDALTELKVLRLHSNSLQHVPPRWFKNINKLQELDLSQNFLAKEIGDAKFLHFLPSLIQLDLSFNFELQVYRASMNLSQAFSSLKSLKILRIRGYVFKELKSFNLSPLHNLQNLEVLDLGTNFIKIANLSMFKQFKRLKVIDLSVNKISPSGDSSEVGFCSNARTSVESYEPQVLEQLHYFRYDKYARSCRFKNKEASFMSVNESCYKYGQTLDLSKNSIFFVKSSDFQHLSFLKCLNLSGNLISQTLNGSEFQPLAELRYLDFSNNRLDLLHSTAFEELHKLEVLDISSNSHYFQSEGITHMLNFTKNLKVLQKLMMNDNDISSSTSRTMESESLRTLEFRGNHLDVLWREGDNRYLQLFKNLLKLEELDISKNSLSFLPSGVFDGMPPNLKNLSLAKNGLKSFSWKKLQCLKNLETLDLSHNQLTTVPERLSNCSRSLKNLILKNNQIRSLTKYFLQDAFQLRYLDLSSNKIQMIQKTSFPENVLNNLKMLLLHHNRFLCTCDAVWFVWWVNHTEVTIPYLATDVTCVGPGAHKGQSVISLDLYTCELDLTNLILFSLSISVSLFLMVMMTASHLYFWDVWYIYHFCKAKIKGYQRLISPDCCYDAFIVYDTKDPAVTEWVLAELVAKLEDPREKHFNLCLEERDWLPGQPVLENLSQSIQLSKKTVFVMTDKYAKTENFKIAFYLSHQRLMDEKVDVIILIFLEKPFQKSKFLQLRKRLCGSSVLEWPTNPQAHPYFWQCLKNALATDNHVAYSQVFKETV
The target in a further assay is human TLR8 (Homo sapiens (Human), UniProt Q9NR97). As to the kind of experiment: TLR8 inhibition reporter assay (HEK-Blue cells, SEAP reporter, R848 stimulation). (In a reporter assay the amount or activity of a reporter protein is the signal.);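 note: compounds tested from 0.05 nM to 50 µM, 22 h at 37 °C, SEAP measured with HEK-Blue Detection, inhibition relative to agonist plus DMSO versus a known inhibitor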
human TLR8, sequence (Q9NR97 27-1041): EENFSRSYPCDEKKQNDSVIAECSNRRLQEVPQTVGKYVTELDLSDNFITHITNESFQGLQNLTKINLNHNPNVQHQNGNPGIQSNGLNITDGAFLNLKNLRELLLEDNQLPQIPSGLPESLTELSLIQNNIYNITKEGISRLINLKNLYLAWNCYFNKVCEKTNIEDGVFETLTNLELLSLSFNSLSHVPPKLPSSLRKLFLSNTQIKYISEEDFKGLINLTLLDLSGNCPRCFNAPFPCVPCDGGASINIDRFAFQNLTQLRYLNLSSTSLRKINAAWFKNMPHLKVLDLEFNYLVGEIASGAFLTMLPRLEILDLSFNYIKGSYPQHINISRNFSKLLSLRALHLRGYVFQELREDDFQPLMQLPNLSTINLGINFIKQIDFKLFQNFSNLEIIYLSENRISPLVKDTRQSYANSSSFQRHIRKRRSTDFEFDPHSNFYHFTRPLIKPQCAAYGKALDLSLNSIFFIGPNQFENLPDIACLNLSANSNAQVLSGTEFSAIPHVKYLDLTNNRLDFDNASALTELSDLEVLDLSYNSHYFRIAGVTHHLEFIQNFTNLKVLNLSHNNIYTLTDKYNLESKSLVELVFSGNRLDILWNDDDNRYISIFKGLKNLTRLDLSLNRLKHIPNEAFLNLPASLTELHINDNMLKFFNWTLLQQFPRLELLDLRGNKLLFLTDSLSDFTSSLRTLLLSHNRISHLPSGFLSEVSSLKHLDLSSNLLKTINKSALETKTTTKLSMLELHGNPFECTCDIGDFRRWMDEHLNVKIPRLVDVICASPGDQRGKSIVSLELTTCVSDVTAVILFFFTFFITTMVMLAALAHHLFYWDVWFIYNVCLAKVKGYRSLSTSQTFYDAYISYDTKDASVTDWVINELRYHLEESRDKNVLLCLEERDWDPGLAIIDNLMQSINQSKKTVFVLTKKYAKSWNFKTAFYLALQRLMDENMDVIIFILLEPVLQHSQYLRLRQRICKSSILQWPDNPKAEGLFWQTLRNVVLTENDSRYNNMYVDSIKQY
Where [1] appears, read: read-out: TLR9 IC50, HEK-Blue cells overexpressing human TLR9, ODN2006 5 nM.
Where [2] appears, read: HEK-Blue cells overexpressing human TLR7, gardiquimod 7.5 μM.
Setting [3] is: read-out: TLR8 IC50, HEK-Blue cells overexpressing human TLR8, R848 15.9 μM.
Setting [4] is: read-out: TLR9 IC50, HEK-Blue cells, ODN2006 5 nM.
[5] abbreviates: HEK-Blue cells, gardiquimod 7.5 μM.
The mark [6] stands for this setting: read-out: TLR8 IC50, HEK-Blue cells, R848 15.9 μM.

The values below come from patent US10660877B2 (BRISTOL-MYERS SQUIBB COMPANY, priority 2016, dated 2020).

pIC50: −log10 of the molar value. Read-outs that look alike come from different tables or passages of the source.

human TLR9, sequence (Q9NR96 26-1032): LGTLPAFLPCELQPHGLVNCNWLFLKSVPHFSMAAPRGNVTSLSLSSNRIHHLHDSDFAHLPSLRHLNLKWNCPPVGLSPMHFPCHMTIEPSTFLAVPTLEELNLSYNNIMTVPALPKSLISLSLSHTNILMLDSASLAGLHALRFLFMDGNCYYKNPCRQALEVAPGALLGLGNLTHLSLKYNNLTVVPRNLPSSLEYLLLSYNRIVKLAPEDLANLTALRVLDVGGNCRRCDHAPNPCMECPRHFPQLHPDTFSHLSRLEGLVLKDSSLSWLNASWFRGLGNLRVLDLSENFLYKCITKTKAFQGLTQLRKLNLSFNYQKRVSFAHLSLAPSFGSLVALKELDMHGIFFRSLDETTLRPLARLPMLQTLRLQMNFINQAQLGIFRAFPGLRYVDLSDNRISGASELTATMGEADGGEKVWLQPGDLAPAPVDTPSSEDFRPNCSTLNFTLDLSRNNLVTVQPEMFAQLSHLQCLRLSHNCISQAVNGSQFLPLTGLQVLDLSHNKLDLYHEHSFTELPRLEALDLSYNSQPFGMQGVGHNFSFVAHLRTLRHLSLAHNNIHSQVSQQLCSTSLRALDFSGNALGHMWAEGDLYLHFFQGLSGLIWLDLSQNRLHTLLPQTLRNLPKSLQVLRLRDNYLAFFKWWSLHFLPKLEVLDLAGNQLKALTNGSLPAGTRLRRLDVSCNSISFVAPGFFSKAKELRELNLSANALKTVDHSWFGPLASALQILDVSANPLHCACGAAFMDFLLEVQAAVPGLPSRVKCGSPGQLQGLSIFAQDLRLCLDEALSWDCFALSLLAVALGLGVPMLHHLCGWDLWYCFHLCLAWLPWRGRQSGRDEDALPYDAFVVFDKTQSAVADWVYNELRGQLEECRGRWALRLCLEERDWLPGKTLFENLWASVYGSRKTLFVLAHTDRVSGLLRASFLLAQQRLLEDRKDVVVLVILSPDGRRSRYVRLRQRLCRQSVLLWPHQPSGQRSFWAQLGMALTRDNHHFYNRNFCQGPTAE

By pIC50 is commonly meant the negative decadic logarithm of the IC50, by convention in mol/L. Take `Cc1cc(-c2[nH]c3ccc(C4CCN(C(=O)C[C@H](C)O)CC4)cc3c2C(C)C)cc(C)n1` [Example 109, (S)-1-(4-(2-(2,6-dimethylpyridin-4-yl)-3-isopropyl-1H-indol-5-yl)piperidin-1-yl)-3-hydroxybutan-1-one]: the figures for the pIC50 on human TLR9 (setting [1]), against human TLR7 (setting [2]) and at human TLR8 (setting [3]) were 4.38, 7.97 and 6.83, respectively.

In the case of `Cc1cc(-c2[nH]c3ccc(C4CCN(CC5CCNC5)CC4)cc3c2C(C)C)cc(C)n1` (stereo not drawn) [Example 466, 2-(2,6-dimethylpyridin-4-yl)-3-isopropyl-5-(1-(pyrrolidin-3-ylmethyl)piperidin-4-yl)-1H-indole], the pIC50 on human TLR9 (setting [1]) was 6.56; against human TLR7 (setting [2]) it was 8.19; at human TLR8 (setting [3]) it was 8.43.

`COc1cc(-c2[nH]c3ccc(C4CCN(C(=O)CN(C)C)CC4)cc3c2C(C)C)ccn1` [Example 521, 2-(dimethylamino)-1-(4-(3-isopropyl-2-(2-methoxypyridin-4-yl)-1H-indol-5-yl)piperidin-1-yl)ethan-1-one]: the pIC50 on human TLR9 (setting [1]) was 5.43; against human TLR7 (setting [2]), 7.38; at human TLR8 (setting [3]), 6.94.

`COc1cc(-c2[nH]c3ccc(C4CCN(C5CCN(C(C)C)CC5)CC4)cc3c2C(C)C)ccn1` [Example 797, 3-isopropyl-5-(1′-isopropyl-[1,4′-bipiperidin]-4-yl)-2-(2-methoxypyridin-4-yl)-1H-indole]: the pIC50 at human TLR9 (setting [1]) was 6.22; on human TLR7 (setting [2]), 6.85; on human TLR8 (setting [3]), 7.64.

With `Cc1cc(-c2[nH]c3ccc(C4CCN(CC(=O)N(C)C)CC4)cc3c2C(C)C)cc(C2CC2)n1` [Example 505, 2-(4-(2-(2-cyclopropyl-6-methylpyridin-4-yl)-3-isopropyl-1H-indol-5-yl)piperidin-1-yl)-N,N-dimethylacetamide], the pIC50 at human TLR9 (setting [1]) was 6.15; on human TLR7 (setting [2]) it was 8.23; at human TLR8 (setting [3]) it was 7.57.

As for `Cc1cc(-c2[nH]c3ccc(C4CCN(C(=O)CNC[C@@H](O)CO)CC4)cc3c2C(C)C)ccn1` [Example 511, (R)-2-((2,3-dihydroxypropyl)amino)-1-(4-(3-isopropyl-2-(2-methylpyridin-4-yl)-1H-indol-5-yl)piperidin-1-yl)ethan-1-one], the pIC50 is 5.84 on human TLR9 (setting [1]), 7.49 at human TLR7 (setting [2]) and 7.50 at human TLR8 (setting [3]).

With `Cc1cc(-c2[nH]c3ccc(C4CCN(CC5CCN(C)CC5)CC4)cc3c2C(C)C)ccn1` [Example 743, 3-isopropyl-5-(1-((1-methylpiperidin-4-yl)methyl)piperidin-4-yl)-2-(2-methylpyridin-4-yl)-1H-indole], the negative logarithm of the IC50 (pIC50) on human TLR9 (setting [1]) was 6.55; against human TLR7 (setting [2]), 8.19; on human TLR8 (setting [3]), 8.29.

Consider `CNC(=O)CN1CCC(c2ccc3[nH]c(-c4cc(C)nc(C)c4F)c(C(C)C)c3c2)CC1` [Example 655, 2-(4-(2-(3-fluoro-2,6-dimethylpyridin-4-yl)-3-isopropyl-1H-indol-5-yl)piperidin-1-yl)-N-methylacetamide], for which the pIC50 was 5.76 at human TLR9 (setting [1]), 8.89 against human TLR7 (setting [2]) and 8.38 at human TLR8 (setting [3]).

Consider `Cc1cc(-c2[nH]c3ccc(C4CCN(CC(=O)N5CCOCC5)CC4)cc3c2C(C)C)cc(C)n1` [Example 232, 2-(4-(2-(2,6-dimethylpyridin-4-yl)-3-isopropyl-1H-indol-5-yl)piperidin-1-yl)-1-morpholinoethan-1-one], for which the pIC50 against human TLR9 (TLR9 IC50, HEK-Blue cells overexpressing human TLR9, ODN2006 5 nM) was 6.20; against human TLR7 (setting [2]) it was 8.44; against human TLR8 (TLR8 IC50, HEK-Blue cells overexpressing human TLR8, R848 15.9 μM), 8.11.

In the case of `Cc1cc(-c2[nH]c3ccc(C4CCN(CCOc5ccccc5)CC4)cc3c2C(C)C)ccn1` [Example 663, 3-isopropyl-2-(2-methylpyridin-4-yl)-5-(1-(2-phenoxyethyl)piperidin-4-yl)-1H-indole], the figures for the pIC50 on human TLR9 (setting [1]), on human TLR7 (setting [2]) and on human TLR8 (setting [3]) were 5.96, 6.95 and 7.51, respectively.

Consider `Cc1cc(-c2[nH]c3ccc(C4CCN(C5CCN(C(C)C)CC5)CC4)cc3c2C)ccn1` [Example 811, 5-(1′-isopropyl-[1,4′-bipiperidin]-4-yl)-3-methyl-2-(2-methylpyridin-4-yl)-1H-indole], for which the pIC50 at human TLR9 (setting [4]) is 7.64; on human TLR7 (setting [5]), 6.93; at human TLR8 (setting [6]) it was 7.33.

As for `CCc1c(-c2ccnc(-c3nnc[nH]3)c2)[nH]c2ccc(C3CCNCC3)cc12` [Example 66, 2-(2-(4H-1,2,4-triazol-3-yl)pyridin-4-yl)-3-ethyl-5-(piperidin-4-yl)-1H-indole], the values for the pIC50 on human TLR9 (setting [1]), against human TLR7 (setting [2]) and on human TLR8 (setting [3]) were 6.26, 5.91 and 6.80, respectively.

Consider `CNCC(=O)N1CCC(c2ccc3[nH]c(-c4cc(C)nc(C)c4)c(CC(F)F)c3c2)CC1` [Example 535, 1-(4-(3-(2,2-difluoroethyl)-2-(2,6-dimethylpyridin-4-yl)-1H-indol-5-yl)piperidin-1-yl)-2-(methylamino)ethan-1-one], for which the pIC50 is 6.59 at human TLR9 (setting [1]), 8.00 against human TLR7 (setting [2]) and 7.06 at human TLR8 (setting [3]).

For `Cc1cc(-c2[nH]c3ccc(C4CCN(CC(=O)N(C)CCCO)CC4)cc3c2C(C)C)cc(C)n1` [Example 288, 2-(4-(2-(2,6-dimethylpyridin-4-yl)-3-isopropyl-1H-indol-5-yl)piperidin-1-yl)-N-(3-hydroxypropyl)-N-methylacetamide], the pIC50 on human TLR9 (setting [1]) is 5.83; at human TLR7 (setting [2]), 8.00; on human TLR8 (setting [3]), 7.46.

For `COc1cc(-c2[nH]c3ccc(C4CCNCC4)cc3c2C(C)C)c(F)cn1` [Example 47, 2-(5-fluoro-2-methoxypyridin-4-yl)-3-isopropyl-5-(piperidin-4-yl)-1H-indole], the pIC50 at human TLR9 (setting [1]) was 5.46; on human TLR7 (setting [2]) it was 8.05; on human TLR8 (setting [3]), 7.44.

With `Cc1cc(-c2[nH]c3ccc(C4CCNCC4)cc3c2C(C)C)c(N)c(C)n1` [Example 29, 4-(3-isopropyl-5-(piperidin-4-yl)-1H-indol-2-yl)-2,6-dimethylpyridin-3-amine], the negative-log IC50 (pIC50) at human TLR9 (setting [1]) was 6.58; against human TLR7 (setting [2]) it was 8.68; on human TLR8 (setting [3]), 7.73.

As to `Cc1cc(-c2[nH]c3ccc(C4CCN(C(=O)OC(C)C)CC4)cc3c2C(C)C)ccn1` [Example 559, isopropyl 4-(3-isopropyl-2-(2-methylpyridin-4-yl)-1H-indol-5-yl)piperidine-1-carboxylate], the pIC50 on human TLR9 (setting [1]) was 4.87; against human TLR7 (setting [2]), 6.30; at human TLR8 (setting [3]) it was 6.06.

Consider `CCCS(=O)(=O)N1CCC(c2ccc3[nH]c(-c4ccnc(C)c4)c(C(C)C)c3c2)CC1` [Example 545, 3-isopropyl-2-(2-methylpyridin-4-yl)-5-(1-(propylsulfonyl)piperidin-4-yl)-1H-indole], for which the negative logarithm of the IC50 (pIC50) was below 4.30 on human TLR9 (setting [1]), 6.99 against human TLR7 (setting [2]) and 6.58 at human TLR8 (setting [3]).

With `Cc1cc(-c2[nH]c3ccc(C4CCN(C(=O)C5(N(C)C)CC5)CC4)cc3c2C(C)C)cc(C)n1` [Example 172, (1-(dimethylamino)cyclopropyl)(4-(2-(2,6-dimethylpyridin-4-yl)-3-isopropyl-1H-indol-5-yl)piperidin-1-yl)methanone], the pIC50 was 5.29 on human TLR9 (setting [1]), 8.10 against human TLR7 (setting [2]) and 7.00 on human TLR8 (setting [3]).

For the compound `CNCCN1CCC(c2ccc3[nH]c(-c4ccnc(C(=O)OC)c4)c(C)c3c2)CC1` [Example 752, methyl 4-(3-methyl-5-(1-(2-(methylamino)ethyl)piperidin-4-yl)-1H-indol-2-yl) picolinate], the pIC50 on human TLR9 (setting [1]) is 6.70; against human TLR7 (setting [2]), 6.64; at human TLR8 (setting [3]) it was 6.94.

Regarding `Cc1cc(-c2[nH]c3ccc(C4CCN(CC(C)C)CC4)cc3c2C(C)C)c(C)cn1` [Example 666, 2-(2,5-dimethylpyridin-4-yl)-5-(1-isobutylpiperidin-4-yl)-3-isopropyl-1H-indole], the pIC50 on human TLR9 (setting [1]) is 6.02; against human TLR7 (setting [2]) it was 8.24; at human TLR8 (setting [3]), 8.59.

Take `Cc1ccc(S(=O)(=O)N2CCC(c3ccc4[nH]c(-c5ccnc(C)c5)c(C(C)C)c4c3)CC2)cc1` [Example 554]: the values for the pIC50 at human TLR9 (setting [1]), at human TLR7 (setting [2]) and on human TLR8 (setting [3]) were below 4.30, 6.36 and 5.97, respectively.

For `Cc1cc(-c2[nH]c3ccc(C4CCN(S(=O)(=O)C(C)C)CC4)cc3c2C(C)C)ccn1` [Example 544, 3-isopropyl-5-(1-(isopropylsulfonyl)piperidin-4-yl)-2-(2-methylpyridin-4-yl)-1H-indole], the pIC50 at human TLR9 (setting [1]) is 4.92; on human TLR7 (setting [2]) it was 6.92; at human TLR8 (setting [3]), 6.61.

As to `CCCNCC(=O)N1CCC(c2ccc3[nH]c(-c4cc(C)nc(C)c4)c(C(C)C)c3c2)CC1` [Example 348, 1-(4-(2-(2,6-dimethylpyridin-4-yl)-3-isopropyl-1H-indol-5-yl)piperidin-1-yl)-2-(propylamino)ethan-1-one], the pIC50 is 6.37 at human TLR9 (setting [1]), 8.44 at human TLR7 (setting [2]) and 7.95 at human TLR8 (setting [3]).

As for `CNC(=O)CN1CCC(c2ccc3[nH]c(-c4cc(C)nc(C)c4)c(CC(F)F)c3c2)CC1` [Example 532, 2-(4-(3-(2,2-difluoroethyl)-2-(2,6-dimethylpyridin-4-yl)-1H-indol-5-yl)piperidin-1-yl)-N-methylacetamide], the pIC50 is 6.09 at human TLR9 (setting [1]), 7.76 against human TLR7 (setting [2]) and 7.09 on human TLR8 (setting [3]).

With `CCc1c(-c2ccnc(C)c2)[nH]c2ccc(C3CCN(C(=O)NC4CCNCC4)CC3)cc12` [Example 845, 4-(3-ethyl-2-(2-methylpyridin-4-yl)-1H-indol-5-yl)-N-(piperidin-4-yl)piperidine-1-carboxamide], the values for the pIC50 on human TLR9 (setting [4]), against human TLR7 (setting [5]) and at human TLR8 (setting [6]) were 5.93, 6.83 and 7.03, respectively.
